Results published in patent US9255295B2, “Method for evaluating the sensitizing potential of a test compound” (IMMUNOSEARCH, priority 2010, dated 2016).
Where two headings read alike, the source gives them in different places.

Columns and labels:
[1] = test system: genes specific for sensitization (BRAK, CTSS, DAPK2, FABP4, HSP27, IL18, HSP90, IL1R2, TPSAB1, CXCR1, DEFB1, DHFR, EHF, IVL, KRT4, MELANA, NGAL, PDZK1IP1, PI3 …); test: Expression of the other (non-ARE) sensitization-specific genes in EPISKIN reconstructed skin (quantitative RT-PCR); format: cell-based, human; settings: for BRAK expression / CTSS expression / CXCR1 expression / DAPK2 expression / DEFB1 expression / DHFR expression / EHF expression / FABP4 expression / HSP27 expression / HSP90 expression / IL18 expression / IVL expression / KRT4 expression / MELANA expression / NGAL expression / P13 expression / PDZK1iP1 expression / SERPINB3 expression: compared to the control;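 as to CTSS NUMBER OF GENES grade: grade scored against expression in the control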;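 as to CXCR1 NUMBER OF GENES grade: grade scored against expression in the control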;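 as to DAPK2 NUMBER OF GENES grade: grade scored against expression in the control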
[2] = test system: ARE gene family (AKR1B10, AKR1C1, AKR1C2, CYP1B1, FTH1P, FTL, G6PD, GCLM, NQO2, SLC7A11, TXNRD1, UGT1A1, UGT1A9, YWHAZ, CD36, CYP1A1, GCLC, HMOX1, NQO1, PSME2 …)

With `C=CCc1ccc(O)c(OC)c1` [Eugenol] the “BRAK NUMBER OF GENES grade” value ([1]; 10%) was 0 (if this expression is lower, the grade is 0), the “CTSS NUMBER OF GENES grade” value ([1]; 10%) was 0 (if this expression is lower, the grade is 0) and the “CXCR1 NUMBER OF GENES grade” value ([1]; 10%) was 0 (if this expression is lower, the grade is 0). The “DAPK2 NUMBER OF GENES grade” value ([1]; 10%) was 1 (If the expression is greater than 1.3 compared to the control, a grade of 11s given), the “DEFB1 NUMBER OF GENES grade” value ([1]; 10%) was 0 (if this expression is lower, the grade is 0) and the “DHFR NUMBER OF GENES grade” value ([1]; 10%) was 0 (if this expression is lower, the grade is 0). The “EHF NUMBER OF GENES grade” value ([1]; 10%) was 1 (If the expression is greater than 1.3 compared to the control, a grade of 11s given), the “FABP4 NUMBER OF GENES grade” value ([1]; 10%) was 0 (if this expression is lower, the grade is 0) and the “HSP27 NUMBER OF GENES grade” value ([1]; 10%) was 0 (if this expression is lower, the grade is 0). For the same compound, the “HSP90 NUMBER OF GENES grade” value ([1]; 10%) was 0 (if this expression is lower, the grade is 0), the “IL18 NUMBER OF GENES grade” value ([1]; 10%) was 0 (if this expression is lower, the grade is 0) and the “IVL NUMBER OF GENES grade” value ([1]; 10%) was 0 (if this expression is lower, the grade is 0). For the same compound, the “KRT4 NUMBER OF GENES grade” value ([1]; 10%) was 0 (if this expression is lower, the grade is 0), the “MELANA NUMBER OF GENES grade” value ([1]; 10%) was 1 (If the expression is greater than 1.3 compared to the control, a grade of 11s given) and the “NGAL NUMBER OF GENES grade” value ([1]; 10%) was 0 (if this expression is lower, the grade is 0). For the same compound, the “P13 NUMBER OF GENES grade” value ([1]; 10%) was 0 (if this expression is lower, the grade is 0), the “PDZK1iP1 NUMBER OF GENES grade” value ([1]; 10%) was 0 (if this expression is lower, the grade is 0) and the “SENS >1.3 (number of genes)” value ([1]; 10%) was 4. For the same compound, the “SERPINB3 NUMBER OF GENES grade” value ([1]; 10%) was 0 (if this expression is lower, the grade is 0), the “TOTAL SENS (number of genes)” value ([1]; 10%) was 4 and the BRAK expression ([1]; 10%) was 0.7. For the same compound, the CTSS expression ([1]; 10%) was 1.0, the CXCR1 expression ([1]; 10%) was 0.8 and the DAPK2 expression ([1]; 10%) was 1.3. It also gave a DEFB1 expression ([1]; 10%) of 1.1, a DHFR expression ([1]; 10%) of 0.8 and an EHF expression ([1]; 10%) of 1.3. For the same compound, the FABP4 expression ([1]; 10%) was 0.6, the HSP27 expression ([1]; 10%) was 1.1 and the HSP90 expression ([1]; 10%) was 1.1. For the same compound, the IL18 expression ([1]; 10%) was 1.1, the IVL expression ([1]; 10%) was 0.9 and the KRT4 expression ([1]; 10%) was 0.8. The MELANA expression ([1]; 10%) was 1.9, the NGAL expression ([1]; 10%) was 0.7 and the P13 expression ([1]; 10%) was 0.9. The PDZK1iP1 expression ([1]; 10%) was 0.9, the SERPINB3 expression ([1]; 10%) was 1.2 and the “BRAK NUMBER OF GENES grade” value ([1]; 50%) was 0 (if this expression is lower, the grade is 0). For the same compound, the “CTSS NUMBER OF GENES grade” value ([1]; 50%) was 0 (if this expression is lower, the grade is 0), the “CXCR1 NUMBER OF GENES grade” value ([1]; 50%) was 1 (If the expression is greater than 1.3 compared to the control, a grade of 11s given) and the “DAPK2 NUMBER OF GENES grade” value ([1]; 50%) was 1 (If the expression is greater than 1.3 compared to the control, a grade of 11s given). The “DEFB1 NUMBER OF GENES grade” value ([1]; 50%) was 1 (If the expression is greater than 1.3 compared to the control, a grade of 11s given), the “DHFR NUMBER OF GENES grade” value ([1]; 50%) was 0 (if this expression is lower, the grade is 0) and the “EHF NUMBER OF GENES grade” value ([1]; 50%) was 0 (if this expression is lower, the grade is 0). For the same compound, the “FABP4 NUMBER OF GENES grade” value ([1]; 50%) was 1 (If the expression is greater than 1.3 compared to the control, a grade of 11s given), the “HSP27 NUMBER OF GENES grade” value ([1]; 50%) was 1 (If the expression is greater than 1.3 compared to the control, a grade of 11s given) and the “HSP90 NUMBER OF GENES grade” value ([1]; 50%) was 1 (If the expression is greater than 1.3 compared to the control, a grade of 11s given). For the same compound, the “IL18 NUMBER OF GENES grade” value ([1]; 50%) was 0 (if this expression is lower, the grade is 0), the “IVL NUMBER OF GENES grade” value ([1]; 50%) was 1 (If the expression is greater than 1.3 compared to the control, a grade of 11s given) and the “KRT4 NUMBER OF GENES grade” value ([1]; 50%) was 1 (If the expression is greater than 1.3 compared to the control, a grade of 11s given). The “MELANA NUMBER OF GENES grade” value ([1]; 50%) was 0 (if this expression is lower, the grade is 0), the “NGAL NUMBER OF GENES grade” value ([1]; 50%) was 1 (If the expression is greater than 1.3 compared to the control, a grade of 11s given) and the “P13 NUMBER OF GENES grade” value ([1]; 50%) was 1 (If the expression is greater than 1.3 compared to the control, a grade of 11s given). The “PDZK1iP1 NUMBER OF GENES grade” value ([1]; 50%) was 1 (If the expression is greater than 1.3 compared to the control, a grade of 11s given), the “SENS >1.3 (number of genes)” value ([1]; 50%) was 15 and the “SERPINB3 NUMBER OF GENES grade” value ([1]; 50%) was 1 (If the expression is greater than 1.3 compared to the control, a grade of 11s given). For the same compound, the “TOTAL SENS (number of genes)” value ([1]; 50%) was 15, the BRAK expression ([1]; 50%) was 0.4 and the CTSS expression ([1]; 50%) was 0.1. For the same compound, the CXCR1 expression ([1]; 50%) was 2.2, the DAPK2 expression ([1]; 50%) was 1.5 and the DEFB1 expression ([1]; 50%) was 3.0. The DHFR expression ([1]; 50%) was 0.6, the EHF expression ([1]; 50%) was 1.2 and the FABP4 expression ([1]; 50%) was 1.4. For the same compound, the HSP27 expression ([1]; 50%) was 5.4, the HSP90 expression ([1]; 50%) was 9.1 and the IL18 expression ([1]; 50%) was 0.7. It also gave an IVL expression ([1]; 50%) of 2.6, a KRT4 expression ([1]; 50%) of 4.6 and an MELANA expression ([1]; 50%) of 1.0. For the same compound, the NGAL expression ([1]; 50%) was 1.3, the P13 expression ([1]; 50%) was 1.4 and the PDZK1iP1 expression ([1]; 50%) was 1.7. The SERPINB3 expression ([1]; 50%) was 1.4, the “sensitizing power (class)” value (EPISKIN model) was “WEAK” and the “ARE >1.3 (number of genes)” value [2] was 10. For the same compound, the “TOTAL ARE (number of genes)” value [2] was 10, the AHR expression ([2]; human, 6 h, 10 %) was 0.8 and the AKR1B10 expression ([2]; human, 6 h, 10 %) was 0.9. The AKR1C1 expression ([2]; human, 6 h, 10 %) was 1.3, the AKR1C2 expression ([2]; human, 6 h, 10 %) was 1.1 and the “ARE >1.3 (number of genes)” value ([2]; human, 6 h, 10 %) was 3. It also gave a CD36 expression ([2]; human, 6 h, 10 %) of 1.7, a CYP1A1 expression ([2]; human, 6 h, 10 %) of 0.5 and a CYP1B1 expression ([2]; human, 6 h, 10 %) of 0.6. For the same compound, the FTH1P expression ([2]; human, 6 h, 10 %) was 1.1, the FTL expression ([2]; human, 6 h, 10 %) was 1.1 and the GCLC expression ([2]; human, 6 h, 10 %) was 1.3. It also gave a GCLM expression ([2]; human, 6 h, 10 %) of 1.1, an HMOX1 expression ([2]; human, 6 h, 10 %) of 1.3 and an NQO1 expression ([2]; human, 6 h, 10 %) of 1.1. For the same compound, the NQO2 expression ([2]; human, 6 h, 10 %) was 1.0, the S100A8 expression ([2]; human, 6 h, 10 %) was 1.0 and the SLC7A11 expression ([2]; human, 6 h, 10 %) was 1.2. The “TOTAL ARE (number of genes)” value ([2]; human, 6 h, 10 %) was 3, the TXNRD1 expression ([2]; human, 6 h, 10 %) was 1.1 and the UGT1A1 expression ([2]; human, 6 h, 10 %) was 1.0. The UGT1A9 expression ([2]; human, 6 h, 10 %) was 0.7, the AHR expression ([2]; human, 6 h, 50 %) was 1.3 and the AKR1B10 expression ([2]; human, 6 h, 50 %) was 1.0. For the same compound, the AKR1C1 expression ([2]; human, 6 h, 50 %) was 0.7, the AKR1C2 expression ([2]; human, 6 h, 50 %) was 0.7 and the CD36 expression ([2]; human, 6 h, 50 %) was 2.3. For the same compound, the CYP1A1 expression ([2]; human, 6 h, 50 %) was 2.3, the CYP1B1 expression ([2]; human, 6 h, 50 %) was 0.9 and the FTH1P expression ([2]; human, 6 h, 50 %) was 2.3. It also gave an FTL expression ([2]; human, 6 h, 50 %) of 4.2, a GCLC expression ([2]; human, 6 h, 50 %) of 3.2 and a GCLM expression ([2]; human, 6 h, 50 %) of 1.1. For the same compound, the HMOX1 expression ([2]; human, 6 h, 50 %) was 2.4, the NQO1 expression ([2]; human, 6 h, 50 %) was 0.7 and the NQO2 expression ([2]; human, 6 h, 50 %) was 1.3. For the same compound, the S100A8 expression ([2]; human, 6 h, 50 %) was 1.9, the SLC7A11 expression ([2]; human, 6 h, 50 %) was 2.6 and the TXNRD1 expression ([2]; human, 6 h, 50 %) was 3.0. For the same compound, the UGT1A1 expression ([2]; human, 6 h, 50 %) was 0.5 and the UGT1A9 expression ([2]; human, 6 h, 50 %) was 25.0.
